Experimental data reported in patent US8008007B2, “S-adenosyl-L-methionine analogs with extended activated groups for transfer by methyltransferases” (RWTH Aachen, priority 2005, dated 2011).

What was measured:
Format in all cases: biochemical
[1] = system: M.BcnIB; assay: DNA protection assay with M.BcnIB (wild-type) on phage lambda DNA; settings: 1.10 μg phage lambda DNA, cofactor 300 μM, 37° C. for 4 h, then R.BcnI; pH 7.4 (pH 6.0 for cofactor 6)
Description: (§1) Transfer kinetics of the activated ethyl (—CH2CH3), propyl (—CH2CH2CH3), prop-2-enyl (—CH2CH═CH2), prop-2-ynyl (—CH2C≡CH), but-2-ynyl (—CH2C≡CCH3), pent-2-ynyl (—CH2C≡CCH2CH3) and benzyl group (—CH2C6H5) from cofactors 3-9 by the DNA adenine-N6 methyltransferase M.TaqI and its variant V21 G, the DNA cytosine-C5 methyltransferase M.HhaI and its variant Q82A, the DNA cytosine-N4 methyltransferase M.BcnIB and the DNA cytosine-C5 methyltransferase M.SssI variant Q142A to phage lambda DNA (48502 base pairs) were investigated using a DNA protection assay. This assay makes use of the fact that DNA methyltransferase-catalyzed modifications of nucleobases within the recognition sequences of restriction endonucleases can protect the DNA against fragmentation by these enzymes. […] Unmodified DNA containing 5′-TCGA-3′ recognition sequences is readily fragmentated by R.TaqI. After DNA modification by M.TaqI in the presence of a cofactor with an activated group Z—R modified 5′-TCGA^Z—R-3′ sequences are formed and, as a result, R.TaqI is unable to fragment the modified DNA. Occurrence of fragmentation is then analyzed by agarose gel electrophoresis.
(§2) By varying the amounts of DNA methyltransferase, this assay is used to investigate the enzymatic activities of the different DNA methyltransferases with cofactors 3-9 and compare them to the enzymatic activities with the natural cofactor 1. The minimal amount of DNA methyltransferase needed to fully protect 1 μg of phage lambda DNA against restriction endonuclease fragmentation under the given experimental conditions is defined as one enzyme unit (u).
Afterwards the reactions were stopped by heating to 80° C. for 10 min. A solution (10 μL) containing R.BcnI restriction endonuclease (12 u, MBI Fermentas), bovine serum albumin (0.1 mg/mL) and buffer (33 mM Tris acetate, 66 mM potassium acetate, 26.5 mM magnesium chloride, pH 7.9) was added to each dilution and incubation at 37° C. was continued for 1 h. […] Parallel control experiments were performed with phage lambda DNA in the absence of M.BcnIB and in the presence of M.BcnIB (144 ng).

[2] = biological target: T1, M.HhaI (Haemophilus parahaemolyticus, UniProt P05102); assay: DNA protection assay with M.HhaI (wild-type) on phage lambda DNA; settings: 1.16 μg phage lambda DNA, cofactor 300 μM, 37° C. for 4 h, then R.Hin6I; pH 7.4 (pH 6.0 for cofactor 6)
T1 construct: made in house
Description: as §1, §2
Afterwards, the reactions were stopped by heating to 80° C. for 10 min. […] Parallel control experiments were performed with phage lambda DNA in the absence of M.HhaI and in the presence of M.HhaI (278 ng).

[3] = biological target: T2, M.TaqI (Thermus aquaticus, UniProt P14385); assay: Modification of adenine-N6 in duplex oligodeoxynucleotide I.II by M.TaqI, nucleoside analysis by HPLC/ESI-MS; settings: 37° C. over night, near-stoichiometric enzyme
T2 construct: made in house
Description: Transfer of the activated ethyl (CH2CH3), propyl (CH2CH2CH3), prop-2-enyl (CH2CHCH2), prop-2-ynyl group (CH2CCH), but-2-ynyl (CH2CCCH3), pent-2-ynyl (CH2CCCH2CH3) or benzyl group (CH2C6H5) from cofactors 3-9 by the DNA adenine-N6 methyltransferase M.TaqI, the DNA cytosine-C5 methyltransferase M.HhaI variant Q82A or the DNA cytosine-N4 methyltransferase M.BcnIB to DNA was first investigated using short duplex oligodeoxynucleotides as substrates. After enzymatic transfer the duplex oligodeoxynucleotides were enzymatically fragmented and the resulting modified nucleosides were analyzed by reversed-phase HPLC coupled with ESI-MS.
M.TaqI was denatured by heating to 95° C. for 10 min and removed by centrifugation ([…], 2 min). The modified duplex oligodeoxynucleotides I^Z—R-II were desalted by gel filtration (NAP-5 column, Amersham Biosciences, Freiburg, Germany), eluted with water (1 mL) and lyophilized.
The modified duplex oligodeoxynucleotides I^Z—R-II were dissolved in buffer (100 μL, 10 mM Tris hydrochloride, 10 mM magnesium chloride, 1 mM zinc acetate, pH 7.5) containing Nuclease PI (1500 u, Sigma, Taufkirchen, Germany) and calf intestine alkaline phosphatase (30 u, MBI Fermentas, St. Leon-Rot, Germany) and incubated at 37° C. for 4 h. Nucleosides were analyzed by reversed-phase HPLC (Symmetry-C18 5 μm, 100 Å, 250×4.6 mm, equipped with a Symmetry-C18 5 μm, 100 Å, 20×4.6 mm pre-column, Waters, Eschborn, Germany). Compounds were eluted with acetonitrile (5% for 7 min, followed by linear gradients to 6% in 15 min, to 35% in 8 min and to 70% in 2 min) in triethylammonium acetate buffer (10 mM, pH 7.0) at a flow of 1 mL/min and detected at 254 nm.
For HPLC-coupled ESI-MS measurements compounds were eluted with methanol (0% for 3 min, followed by a linear gradient to 100% in 22 min) in ammonium formate buffer (20 mM, pH 3.5). A post-column mobile phase modification (equal co-flow of 96% methanol, 4% formic acid) was used to enhance the detection efficiency of 2′-deoxyadenosine and its derivatives. Mass spectra were recorded in 200-370 m/z range.
The hemimethylated duplex oligodeoxynucleotide I.II (compare Scheme 5, Example 2A) was produced by mixing equal molar amounts of complementary single-stranded oligodeoxynucleotide I (5′-GCCGCTCGATGCCG-3′) (SEQ. ID NO. 1) and II (5′-CGGCATCGA^MeGCGGC-3′, A^Me=N6-methyl-2′-deoxyadenosine) (SEQ ID NO. 2) in water, heating at 85° C. for 5 min and slow cooling to room temperature. […] The solution was heated to 95° C. for 10 min, supplemented with Proteinase K and incubated at 55° C. for 2 h. Hydrolysis products were removed by gel filtration (G-25 column, Amersham Biosciences).
The obtained solution was treated with buffer ( 1/10 volume, 100 mM Tris hydrochlorid, 100 mM magnesium chloride, 10 mM zinc acetate, pH 7.5) containing Nuclease P1 (1.14 u, Sigma, Taufkirchen, Germany) and calf intestine alkaline phosphatase (18 u, MBI Fermentas), incubated at 42° C. for 4 h and passed through a Microcon YM-3 spin column (Amicon). Nucleosides were analyzed by reversed-phase HPLC (Discovery HS C18 75×2.1 mm, 3 μm, equipped with a Supelguard Discovery HS C18 20×2.1 mm, 5 μm, pre-column, Supelco, Germany) coupled with a mass spectrometric detector (HP 1100 series ESI-MS equipped with single quadruple). Compounds were eluted with methanol (0% for 3 min, followed by linear gradients to 20% in 15 min and to 80% in 2 min) in ammonium formate buffer (20 mM, pH 3.5) at a flow of 0.3 mL/min. For on-line mass spectrometric detection post-column mobile phase modification (equal co-flow of 96% methanol, 4% formic acid and 1 mM sodium hydroxide) was used to enhance the detection efficiency of 2′-deoxyadenosine, 2′-deoxycytidine and their derivatives. Mass spectra were recorded in 50-600 m/z range.

T1 sequence (P05102 whole entry): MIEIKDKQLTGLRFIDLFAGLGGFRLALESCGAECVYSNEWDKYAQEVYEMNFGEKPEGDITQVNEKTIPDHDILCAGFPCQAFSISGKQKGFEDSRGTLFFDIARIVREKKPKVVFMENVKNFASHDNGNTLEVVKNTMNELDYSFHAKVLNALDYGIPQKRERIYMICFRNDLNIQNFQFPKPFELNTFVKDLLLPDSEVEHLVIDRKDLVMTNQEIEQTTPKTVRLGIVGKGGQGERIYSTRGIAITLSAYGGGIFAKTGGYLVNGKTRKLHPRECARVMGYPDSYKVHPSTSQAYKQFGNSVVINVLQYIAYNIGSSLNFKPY
T2 sequence (P14385 whole entry): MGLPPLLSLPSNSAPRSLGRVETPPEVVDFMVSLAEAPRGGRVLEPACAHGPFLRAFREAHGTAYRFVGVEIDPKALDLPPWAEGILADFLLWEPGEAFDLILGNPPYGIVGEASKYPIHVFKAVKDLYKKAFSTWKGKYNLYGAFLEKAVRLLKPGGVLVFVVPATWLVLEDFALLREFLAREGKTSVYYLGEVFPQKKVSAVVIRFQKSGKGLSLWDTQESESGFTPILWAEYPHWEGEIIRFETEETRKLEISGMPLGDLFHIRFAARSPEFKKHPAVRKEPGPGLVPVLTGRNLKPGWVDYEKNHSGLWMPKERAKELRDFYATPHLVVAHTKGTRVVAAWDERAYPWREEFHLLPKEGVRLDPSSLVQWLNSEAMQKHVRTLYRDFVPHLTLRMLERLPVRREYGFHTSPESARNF

Row | Structure (SMILES) | specific activity of M.BcnIB with the cofactor [1] | specific activity of M.HhaI with the cofactor [2] | cofactor function for M.TaqI (transfer of group Z-R to adenine-N6) [3]
1 | CC#CC[S+](CCC(N)C(=O)O)CC1OC(n2cnc3c(N)ncnc32)C(O)C1O (mixture of isomers) [Cofactor 7] | 28 u/μg | 29 u/μg | functions as a cofactor
2 | CC[S+](CCC(N)C(=O)O)CC1OC(n2cnc3c(N)ncnc32)C(O)C1O (stereo not shown) [Cofactor 3] |  |  | functions as a cofactor
3 | CCC[S+](CCC(N)C(=O)O)CC1OC(n2cnc3c(N)ncnc32)C(O)C1O (stereo not shown) [Cofactor 4] |  | 0 u/μg | functions as a cofactor
4 | C=CC[S+](CCC(N)C(=O)O)CC1OC(n2cnc3c(N)ncnc32)C(O)C1O (stereo not shown) [Cofactor 5] |  | 7 u/μg | functions as a cofactor
5 | C#CC[S+](CCC(N)C(=O)O)CC1OC(n2cnc3c(N)ncnc32)C(O)C1O (stereo not shown) [Cofactor 6] | 0 u/μg |  | functions as a cofactor
6 | CCC#CC[S+](CCC(N)C(=O)O)CC1OC(n2cnc3c(N)ncnc32)C(O)C1O (stereo not shown) [Cofactor 8] | 14 u/μg |  | functions as a cofactor
7 | NCCCC(=O)NCC#CC[S+](CCC(N)C(=O)O)CC1OC(n2cnc3c(N)ncnc32)C(O)C1O (stereo not shown) [Cofactor 10] |  |  | functions as a cofactor
